Measurements reported in the supplement of paper PMC10307832.

Assays:
Test in all cases: relative viability (nuclei count vs DMSO), 5 days (fraction); higher = more cells survive
GSK-J4 + Decitabine = compound: CCOC(=O)CCNc1cc(N2CCc3ccccc3CC2)nc(-c2ccccn2)n1 [GSK-J4] + Nc1ncn([C@H]2C[C@H](O)[C@@H](CO)O2)c(=O)n1 [Decitabine] (partner 2 µM)
Procedure, shortened: (§1)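 Lung cancer cell lines were seeded in 1536-well plates and dosed by pin tool the next day, with either a single drug or a fixed anchor-drug dose combined with five library-drug doses (not always all listed) spaced in √10 steps. Five days later, one step fixed the cells and stained their nuclei (final 0.05% Triton X-100, 1% formaldehyde, 1 ug/ml Hoechst), and nuclei were counted on 4× images. Relative viability is the nuclei count in treated wells divided by the count in vehicle wells, and each value is the median of duplicate plates.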

GSK-J4 + OSI-027 = compound: CCOC(=O)CCNc1cc(N2CCc3ccccc3CC2)nc(-c2ccccn2)n1 [GSK-J4] + COc1cccc2cc(-c3nc([C@H]4CC[C@H](C(=O)O)CC4)n4ncnc(N)c34)[nH]c12 [OSI-027] (partner 0.5 µM)
Procedure, shortened: as §1

AZ3146 + OSI-027 = compound: CN1CCC(CC1)OC2=CC(=C(C=C2)NC3=NC=C4C(=N3)N(C(=O)N4C)C5CCCC5)OC [AZ3146] + COc1cccc2cc(-c3nc([C@H]4CC[C@H](C(=O)O)CC4)n4ncnc(N)c34)[nH]c12 [OSI-027] (partner 0.5 µM)
Procedure, shortened: as §1

GSK-J4 + Crizotinib = compound: CCOC(=O)CCNc1cc(N2CCc3ccccc3CC2)nc(-c2ccccn2)n1 [GSK-J4] + C[C@@H](Oc1cc(-c2cnn(C3CCNCC3)c2)cnc1N)c1c(Cl)ccc(F)c1Cl [Crizotinib] (partner 1 µM)
Procedure, shortened: as §1

Cell Line	relative viability (GSK-J4 + Decitabine; first compound 0.5 µM)	relative viability (GSK-J4 + Decitabine; first compound 1.581 µM)	relative viability (GSK-J4 + Decitabine; first compound 5 µM)	relative viability (GSK-J4 + Decitabine; first compound 15.81 µM)	relative viability (GSK-J4 + Decitabine; first compound 50 µM)	relative viability (GSK-J4 + OSI-027; first compound 0.5 µM)	relative viability (GSK-J4 + OSI-027; first compound 1.581 µM)	relative viability (GSK-J4 + OSI-027; first compound 5 µM)	relative viability (GSK-J4 + OSI-027; first compound 15.81 µM)	relative viability (GSK-J4 + OSI-027; first compound 50 µM)	relative viability (AZ3146 + OSI-027; first compound 0.08 µM)	relative viability (AZ3146 + OSI-027; first compound 0.253 µM)	relative viability (AZ3146 + OSI-027; first compound 0.8 µM)	relative viability (AZ3146 + OSI-027; first compound 2.53 µM)	relative viability (AZ3146 + OSI-027; first compound 8 µM)	relative viability (GSK-J4 + Crizotinib; first compound 0.5 µM)	relative viability (GSK-J4 + Crizotinib; first compound 1.581 µM)	relative viability (GSK-J4 + Crizotinib; first compound 5 µM)	relative viability (GSK-J4 + Crizotinib; first compound 15.81 µM)	relative viability (GSK-J4 + Crizotinib; first compound 50 µM)
NCI-H2009	0.348	0.358	0.313	0.319	0.297	0.573	0.491	0.601	0.527	0.283	0.631	0.621	0.651	0.703	0.436	0.955	1	0.77	1.05	0.789
COR-L 105	0.723		0.507	0.644	0.654	0.631	0.64	0.546	0.585	0.692	0.63	0.653	0.587	0.641	0.404	0.843	0.7	0.547	0.749	0.695
NCI-H1623						0.438	0.456	0.48	0.406	0.435	0.39	0.482	0.458	0.405	0.402					
HCC-827	0.345	0.31	0.482	0.292	0.31	0.751	0.635	0.792	0.576	0.787	0.84	0.763	0.807	0.786	0.726	0.963	0.931	0.933	0.91	0.848
EMC-BAC-2	1	0.862		0.947	0.869	0.347	0.386	0.249	0.315	0.311	0.343	0.371	0.418	0.379	0.375	0.712	0.695	0.726	0.743	0.733
NCI-H1703																0.736	0.748	0.431	0.616	0.662
NCI-H2170	0.453	0.422	0.459	0.463	0.464	0.692	0.696	0.718	0.702	0.524	0.676	0.66	0.66	0.713	0.713	1.09	1.14	1.19	1.09	1.11
NCI-H1755	0.727	0.569	0.641	0.61	0.709	0.623	0.468	0.571	0.553	0.509	0.589	0.737	0.575	0.72	0.802	0.841	0.821	0.891	0.733	0.772
ChaGo-K-1	0.535		0.557	0.479	0.471	0.591	0.419	0.441	0.533	0.428	0.572	0.611	0.539	0.581	0.366	1.03		0.879	1.12	0.926
EKVX	0.297		0.355	0.324	0.299	0.673	0.412	0.619	0.6	0.567	0.72	0.653	0.629	0.63	0.687	0.755	0.883	0.927	0.91	0.889
HCC-78	0.726	0.633	0.71	0.549	0.621	0.351	0.355	0.727	0.368	0.409	0.3	0.381	0.322	0.357	0.365	0.346	0.297	0.378		0.354
A-427	0.554	0.528		0.523	0.434	0.536		0.439	0.396	0.198	0.431	0.586	0.429	0.574	0.338	0.844		0.852	0.591	0.362
NCI-H3122	0.476	0.459	0.454	0.345	0.415	0.88		1.1	0.537	0.674	1.07	1.03	0.776	0.92	0.729	0.287	0.275	0.27	0.243	0.283
NCI-H1563						0.796	0.766	0.659	0.659	0.748	0.684	0.731	0.765	0.746	0.696	0.888	0.779	0.684	0.837	0.857
SK-MES-1	0.389	0.359	0.386	0.321	0.323	0.573	0.542	0.535	0.436	0.327	0.659	0.621	0.568	0.569	0.452	0.987	0.977	0.724	0.939	0.942
SW 1573	0.592	0.645	0.436	0.442	0.204	0.657	0.423	0.507	0.519	0.211	0.678	0.633	0.453	0.662	0.204	0.701	0.726	0.832	0.754	0.608
NCI-H2347	0.584	0.606	0.57	0.58	0.503	0.449	0.347	0.617		0.338	0.245	0.452	0.48	0.293	0.466	0.644	0.707	0.651	0.633	0.554
LC-2-ad	0.746	0.803	0.866	0.776	0.793	0.828	0.759	0.659	0.623	0.528	0.694	0.781	0.801	0.92	0.819	0.554	0.426	0.375	0.41	0.427
